# Experimental data: ChEMBL document CHEMBL1201862, “PubChem BioAssay data set” (2004)
# The source made the active and inactive calls.
# Tests used:
# [1] = molecular target: T1, Corticotropin-releasing factor receptor 2/Corticotropin-releasing factor-binding protein (Homo sapiens, UniProt P24387+Q13324); assay: Dose Response confirmation of uHTS hits for small molecule antagonists of the CRF-binding protein and CRF-R2 receptor complex.; type: functional; conditions: read-out: IC50_Mean
# T1 sequence (Q13324 whole entry): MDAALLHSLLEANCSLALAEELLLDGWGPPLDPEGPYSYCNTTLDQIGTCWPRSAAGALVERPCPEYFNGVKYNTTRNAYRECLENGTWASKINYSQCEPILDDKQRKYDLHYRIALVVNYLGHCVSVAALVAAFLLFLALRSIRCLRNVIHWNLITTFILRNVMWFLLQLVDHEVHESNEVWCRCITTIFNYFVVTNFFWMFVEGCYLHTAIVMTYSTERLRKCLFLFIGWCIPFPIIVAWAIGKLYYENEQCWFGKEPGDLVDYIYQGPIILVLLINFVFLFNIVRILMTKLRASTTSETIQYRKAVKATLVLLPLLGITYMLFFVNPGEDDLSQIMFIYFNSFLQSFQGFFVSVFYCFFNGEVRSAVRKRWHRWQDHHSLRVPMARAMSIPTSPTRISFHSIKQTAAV
# T1 sequence (P24387 whole entry): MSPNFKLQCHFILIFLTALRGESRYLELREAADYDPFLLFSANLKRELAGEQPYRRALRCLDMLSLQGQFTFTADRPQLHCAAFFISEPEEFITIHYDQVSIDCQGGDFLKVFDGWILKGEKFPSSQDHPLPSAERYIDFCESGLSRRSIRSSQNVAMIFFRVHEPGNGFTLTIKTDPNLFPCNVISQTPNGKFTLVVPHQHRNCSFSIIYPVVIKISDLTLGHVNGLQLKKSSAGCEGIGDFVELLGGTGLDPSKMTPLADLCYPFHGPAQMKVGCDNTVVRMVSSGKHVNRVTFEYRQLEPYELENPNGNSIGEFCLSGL
# [2] = molecular target: T1, Corticotropin-releasing factor receptor 2/Corticotropin-releasing factor-binding protein; assay: activators of CRF receptor 2 with binding protein – uHTS hits, confirmation (AID 602473); type: functional; conditions: read-out: EC50_Mean
# [3] = blockers of CRF-binding protein–CRF-R2 complex – cell-based, uHTS hits, 384-well, dose response (AID 651639); type: functional, Homo sapiens; conditions: read-out: IC50_Mean
# [4] = molecular target: Nuclear receptor subfamily 5 group A member 2 (Homo sapiens, UniProt O00482); type: functional, cell-based;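 further: HEK293T cells transfected with LRH-1 and a StAR promoter luciferase reporter; potency for inhibitors that lower LRH-1 driven reporter light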
# Chain of Nuclear receptor subfamily 5 group A member 2 (O00482 whole entry): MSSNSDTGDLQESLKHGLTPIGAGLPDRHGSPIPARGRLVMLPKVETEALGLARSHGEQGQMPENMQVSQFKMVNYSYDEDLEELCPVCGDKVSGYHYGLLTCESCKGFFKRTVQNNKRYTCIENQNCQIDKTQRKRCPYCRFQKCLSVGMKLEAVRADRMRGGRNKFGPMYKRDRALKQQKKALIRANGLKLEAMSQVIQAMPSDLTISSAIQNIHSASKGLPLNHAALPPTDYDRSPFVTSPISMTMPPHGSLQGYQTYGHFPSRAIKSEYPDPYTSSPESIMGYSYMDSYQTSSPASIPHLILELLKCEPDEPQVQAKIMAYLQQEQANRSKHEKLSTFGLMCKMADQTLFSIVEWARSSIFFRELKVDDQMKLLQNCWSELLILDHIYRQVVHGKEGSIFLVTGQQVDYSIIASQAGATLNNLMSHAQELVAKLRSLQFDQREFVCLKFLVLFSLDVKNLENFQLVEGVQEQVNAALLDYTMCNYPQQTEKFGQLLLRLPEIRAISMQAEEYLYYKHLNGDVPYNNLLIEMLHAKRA
# Steroidogenic factor 1 = Steroidogenic factor 1 (Homo sapiens, UniProt Q13285); assay: Counterscreen for inverse agonists of the liver receptor homolog-1 (LRH-1; NR5A2): Luminescence-based cell-based high throughput dose response assay to identify inverse agonists of the Steroidogenic Factor 1 Nuclear Receptor (SF1; NR5A1).; type: functional
# Chain of Steroidogenic factor 1 (Q13285 whole entry): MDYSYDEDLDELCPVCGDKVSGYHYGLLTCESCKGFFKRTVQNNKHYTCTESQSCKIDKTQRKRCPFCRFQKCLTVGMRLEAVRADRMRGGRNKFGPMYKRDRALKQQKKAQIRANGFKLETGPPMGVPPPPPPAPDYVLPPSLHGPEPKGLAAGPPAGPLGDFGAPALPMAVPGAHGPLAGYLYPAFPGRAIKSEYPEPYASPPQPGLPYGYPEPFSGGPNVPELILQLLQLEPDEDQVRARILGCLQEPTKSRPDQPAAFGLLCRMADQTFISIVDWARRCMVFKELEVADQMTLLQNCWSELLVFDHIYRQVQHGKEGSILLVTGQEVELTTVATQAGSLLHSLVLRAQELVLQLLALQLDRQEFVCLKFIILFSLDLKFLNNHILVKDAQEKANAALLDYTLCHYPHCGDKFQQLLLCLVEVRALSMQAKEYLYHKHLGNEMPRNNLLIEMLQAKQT
# [5] = nonselective StAR promoter luciferase inhibitors – cell-based, luminescence, luciferase reporter, counter-screen for LRH-1 inverse agonist project, dose response (AID 651969); type: functional
# [6] = A Cell Based Secondary Assay To Explore Cytotoxicity of Compounds that Sensitize Mycobacterium Tuberculosis to Beta-Lactam Antibiotics.; type: functional
# [7] = bead-based luminescence quenchers, dual-tagged ARNT – biochemical, AlphaScreen, cherry-pick, artefact control for ARNT-TACC3 interaction inhibitor project, dose response (AID 651705); type: functional;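 further: AlphaScreen bead proximity signal that flags compounds interfering with the detection technology; potency reflects signal decrease which marks the compound as an assay artifact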
# [8] = microbe, parasite or virus in culture; type: functional; conditions: Mycobacterium tuberculosis
# [9] = molecular target: T2, Microphthalmia-associated transcription factor (Homo sapiens, UniProt O75030); assay: reducers of TRPM1 reporter luminescence, concentration series – cell-based, SK-MEL-5, cherry-picked, set 3, MITF inhibitor project, dose response (AID 493073); type: functional;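 further: SK-MEL-5 melanoma cells with luciferase driven by the MITF target TRPM1 promoter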
# T2 sequence (O75030 whole entry): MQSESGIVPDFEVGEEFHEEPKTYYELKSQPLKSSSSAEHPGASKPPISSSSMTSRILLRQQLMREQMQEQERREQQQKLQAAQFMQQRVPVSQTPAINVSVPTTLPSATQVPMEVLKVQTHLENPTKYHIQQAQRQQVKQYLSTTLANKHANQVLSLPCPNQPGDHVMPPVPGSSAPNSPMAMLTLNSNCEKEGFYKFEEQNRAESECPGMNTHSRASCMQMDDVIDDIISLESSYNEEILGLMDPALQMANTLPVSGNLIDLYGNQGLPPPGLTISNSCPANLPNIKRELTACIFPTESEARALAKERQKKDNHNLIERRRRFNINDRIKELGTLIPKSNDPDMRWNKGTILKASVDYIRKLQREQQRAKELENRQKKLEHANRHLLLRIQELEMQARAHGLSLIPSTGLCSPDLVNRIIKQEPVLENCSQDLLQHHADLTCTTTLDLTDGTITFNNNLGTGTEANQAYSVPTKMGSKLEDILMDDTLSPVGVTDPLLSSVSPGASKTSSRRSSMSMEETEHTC
# HEK293 = assay: EBV LMP1 TES2 canonical NF-kB signalling blockers – cell-based, HEK293, luciferase, cherry-pick, dose response (AID 588343); type: functional; conditions: Homo sapiens
# Interleukin-8 [10] = molecular target: T3, Interleukin-8 (Homo sapiens, UniProt P10145); assay: Dose Response confirmation of uHTS small molecule hits for cystic fibrosis induced NFkb Inhibitors in a TNFa-induced IL8 counterscreen.; type: functional; conditions: read-out: IC50_Mean
# T3 sequence (P10145 whole entry): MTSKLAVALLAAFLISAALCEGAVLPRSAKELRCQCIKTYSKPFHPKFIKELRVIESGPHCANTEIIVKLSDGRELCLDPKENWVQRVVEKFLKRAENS
# Interleukin-8 [11] = molecular target: T3, Interleukin-8; assay: Dose Response confirmation of uHTS small molecule hits for cystic fibrosis induced NFkb Inhibitors in a PAF-induced IL8 counterscreen.; type: functional; conditions: read-out: IC50_Mean
# [12] = molecular target: Adenosylmethionine-8-amino-7-oxononanoate aminotransferase (Mycobacterium tuberculosis, UniProt P9WQ81); assay: Mycobacterium tuberculosis BioA enzyme inhibitor Measured in Biochemical System Using Plate Reader - 2163-02_Inhibitor_Dose_CherryPick_Activity.; type: functional, Mycobacterium tuberculosis UT205
# Chain of Adenosylmethionine-8-amino-7-oxononanoate aminotransferase (P9WQ81 whole entry): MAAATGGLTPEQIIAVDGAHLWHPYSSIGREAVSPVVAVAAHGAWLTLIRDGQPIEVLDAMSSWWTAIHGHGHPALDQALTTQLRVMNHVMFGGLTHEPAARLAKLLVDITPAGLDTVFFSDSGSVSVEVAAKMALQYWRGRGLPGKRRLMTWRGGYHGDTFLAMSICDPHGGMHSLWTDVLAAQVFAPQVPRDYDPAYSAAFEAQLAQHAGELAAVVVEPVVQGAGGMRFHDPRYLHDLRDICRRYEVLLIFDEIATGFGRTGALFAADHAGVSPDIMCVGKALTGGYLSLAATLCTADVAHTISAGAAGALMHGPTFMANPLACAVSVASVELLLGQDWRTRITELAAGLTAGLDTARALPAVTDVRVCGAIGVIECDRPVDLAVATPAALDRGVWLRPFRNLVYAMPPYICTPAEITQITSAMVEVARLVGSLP
# Nonstructural protein 1 = Nonstructural protein 1 (Influenza A virus, UniProt Q194T2); type: functional, Influenza A virus (A/California/07/2009(H1N1))
# Chain of Nonstructural protein 1 (Q194T2 whole entry): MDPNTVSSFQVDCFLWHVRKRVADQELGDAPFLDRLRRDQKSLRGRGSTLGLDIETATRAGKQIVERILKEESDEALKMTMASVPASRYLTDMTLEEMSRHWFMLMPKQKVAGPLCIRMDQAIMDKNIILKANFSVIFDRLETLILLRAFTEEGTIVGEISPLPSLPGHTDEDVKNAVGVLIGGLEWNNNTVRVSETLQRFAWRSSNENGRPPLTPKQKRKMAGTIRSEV
# [13] = molecular target: T4, Sentrin-specific protease 8 (Homo sapiens, UniProt Q96LD8); assay: inhibition of human SENP8 cleavage activity – biochemical, luminescence, SAR follow-up (AID 504501); type: functional
# T4 sequence (Q96LD8 whole entry): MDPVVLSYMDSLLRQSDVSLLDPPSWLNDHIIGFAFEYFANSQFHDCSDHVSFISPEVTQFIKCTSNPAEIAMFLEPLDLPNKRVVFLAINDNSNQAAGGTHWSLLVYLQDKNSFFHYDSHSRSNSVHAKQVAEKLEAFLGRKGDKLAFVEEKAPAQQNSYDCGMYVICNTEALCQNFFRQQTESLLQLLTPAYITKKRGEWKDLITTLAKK
# Caspase-3 = molecular target: T5, Caspase-3 (Homo sapiens, UniProt P42574); assay: SAR Analysis of small molecule inhibitors of Sentrin-specific proteases (SENPs) using a Caspase-3 Selectivity assay. [Related pubchem assays (depositor defined):AID2540, AID2599, AID434973, AID489001]; type: functional
# T5 sequence (P42574 whole entry): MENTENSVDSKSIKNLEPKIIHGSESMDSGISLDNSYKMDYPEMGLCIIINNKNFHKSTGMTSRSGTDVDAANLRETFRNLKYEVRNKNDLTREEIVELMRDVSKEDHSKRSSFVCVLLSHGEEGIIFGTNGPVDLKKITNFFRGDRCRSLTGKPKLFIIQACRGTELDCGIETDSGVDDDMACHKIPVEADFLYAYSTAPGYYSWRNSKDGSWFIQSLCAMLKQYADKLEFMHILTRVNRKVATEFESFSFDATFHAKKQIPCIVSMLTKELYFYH
# [14] = molecular target: T6, Sentrin-specific protease 6 (Homo sapiens, UniProt Q9GZR1); assay: SAR Analysis of small molecule inhibitors of Sentrin-specific protease 6 (SENP6) using a Luminescent assay. [Related pubchem assays (depositor defined):AID2582, AID2599]; type: functional
# T6 sequence (Q9GZR1 whole entry): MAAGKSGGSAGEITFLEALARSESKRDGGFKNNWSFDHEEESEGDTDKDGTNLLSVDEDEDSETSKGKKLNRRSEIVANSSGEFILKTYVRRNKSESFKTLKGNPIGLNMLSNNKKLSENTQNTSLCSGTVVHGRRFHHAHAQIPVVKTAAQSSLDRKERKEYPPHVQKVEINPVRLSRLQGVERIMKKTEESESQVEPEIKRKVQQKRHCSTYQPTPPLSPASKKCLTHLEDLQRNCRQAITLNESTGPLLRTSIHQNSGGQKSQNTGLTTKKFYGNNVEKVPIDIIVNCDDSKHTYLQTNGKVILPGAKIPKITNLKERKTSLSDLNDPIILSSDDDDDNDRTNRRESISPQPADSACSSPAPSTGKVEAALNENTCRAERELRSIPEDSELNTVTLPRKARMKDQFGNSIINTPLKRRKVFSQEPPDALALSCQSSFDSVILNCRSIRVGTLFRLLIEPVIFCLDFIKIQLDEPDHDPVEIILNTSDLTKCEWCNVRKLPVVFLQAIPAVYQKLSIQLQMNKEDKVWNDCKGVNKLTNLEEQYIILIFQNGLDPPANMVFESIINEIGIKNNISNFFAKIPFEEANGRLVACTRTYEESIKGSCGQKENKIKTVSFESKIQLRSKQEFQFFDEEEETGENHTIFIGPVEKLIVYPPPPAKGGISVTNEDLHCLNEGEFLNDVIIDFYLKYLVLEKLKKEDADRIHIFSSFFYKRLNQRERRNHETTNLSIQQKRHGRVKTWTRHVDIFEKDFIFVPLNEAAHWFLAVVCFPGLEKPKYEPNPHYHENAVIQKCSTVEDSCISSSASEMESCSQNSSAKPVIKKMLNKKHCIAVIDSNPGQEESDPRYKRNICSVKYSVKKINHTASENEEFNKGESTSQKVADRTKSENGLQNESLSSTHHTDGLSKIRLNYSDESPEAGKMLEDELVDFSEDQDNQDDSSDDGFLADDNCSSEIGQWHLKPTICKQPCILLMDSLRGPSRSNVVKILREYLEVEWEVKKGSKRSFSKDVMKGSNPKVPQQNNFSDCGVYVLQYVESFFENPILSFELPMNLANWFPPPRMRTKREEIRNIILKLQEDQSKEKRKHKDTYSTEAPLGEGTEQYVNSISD
# [15] = molecular target: T7, Methionyl-tRNA synthetase, putative (Trypanosoma brucei brucei, UniProt Q38C91); type: functional, Trypanosoma brucei brucei strain 927/4 GUTat10.1;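 further: Read-out by fluorescence polarization, run as a confirmatory high-throughput counterscreen; potency of MetRS inhibitors measured by reduced AMP formation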
# T7 sequence (Q38C91 whole entry): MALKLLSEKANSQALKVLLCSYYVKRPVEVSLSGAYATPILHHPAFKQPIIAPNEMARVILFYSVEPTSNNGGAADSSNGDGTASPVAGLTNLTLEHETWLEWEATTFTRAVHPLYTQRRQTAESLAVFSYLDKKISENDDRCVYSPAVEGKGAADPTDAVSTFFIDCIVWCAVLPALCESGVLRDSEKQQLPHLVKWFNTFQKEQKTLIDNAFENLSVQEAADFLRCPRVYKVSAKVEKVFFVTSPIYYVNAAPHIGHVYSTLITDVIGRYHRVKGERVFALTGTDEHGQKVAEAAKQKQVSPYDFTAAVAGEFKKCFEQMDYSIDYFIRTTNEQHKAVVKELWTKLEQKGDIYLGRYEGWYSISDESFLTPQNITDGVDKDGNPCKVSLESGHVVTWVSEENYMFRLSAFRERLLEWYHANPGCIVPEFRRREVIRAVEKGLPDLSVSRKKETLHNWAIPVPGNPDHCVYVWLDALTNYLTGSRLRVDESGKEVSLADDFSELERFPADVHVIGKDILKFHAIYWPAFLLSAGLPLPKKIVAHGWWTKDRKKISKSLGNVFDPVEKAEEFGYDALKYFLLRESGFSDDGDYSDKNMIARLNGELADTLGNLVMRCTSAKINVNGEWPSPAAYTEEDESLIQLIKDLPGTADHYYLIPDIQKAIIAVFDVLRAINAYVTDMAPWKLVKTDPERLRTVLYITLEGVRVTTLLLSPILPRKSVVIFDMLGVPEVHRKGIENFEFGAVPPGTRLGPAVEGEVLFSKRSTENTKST
# [16] = Counterscreen for inhibitors of Trypanosoma brucei methionyl tRNA synthetase (MetRS): Luminescence-based cell-based high throughput dose response assay to identify compounds that are cytotoxic to Jurkat human T lymphocyte cells.; type: functional
compound,measurement,setting,value
Cc1ccc([C@H]2C(C(=O)O)=CC[C@@H](c3ccc(Cl)cc3)N2S(=O)(=O)c2ccc(C)cc2)cc1,IC50,[1],19.8 µM (active)
same,EC50,[2],25.4 µM (active)
same,IC50,[3],> 20 µM (inactive)
COC(=O)c1ccc(N2CCCCC2)c(NC(=O)c2ccco2)c1,IC50,[4],6.04 µM (active)
same,IC50,Steroidogenic factor 1,3.89 µM (active)
same,IC50,[5],18.7 µM (inactive)
O=C(Nc1nnc(-c2ccco2)o1)c1ccc(S(=O)(=O)N2CCOCC2)cc1,CC50,[6],> 40 µM (active)
same,AC50,[7],117 µM (active)
O=C(NC1CCCC(C(F)(F)F)C1)c1ccc([N+](=O)[O-])o1 (stereo not drawn),CC50,[8],8.8 µM (active)
same,AC50,[9],11.2 µM (active)
same,IC50,[4],23.5 µM (inactive)
same,IC50,Steroidogenic factor 1,0.772 µM (active)
same,IC50,[5],35.9 µM (inactive)
c1nc(NCc2ccc3c(c2)OCO3)c2cc(-c3ccoc3)ccc2n1,AC50,HEK293,2.17 µM (active)
same,IC50,Interleukin-8 [10],> 79 µM (inactive)
same,IC50,Interleukin-8 [11],1.66 µM (active)
Fc1ccc2[nH]c3c(NCCN4CCOCC4)ncnc3c2c1,AC50,[12],14.9 µM (active)
O=C(CSc1ccc2nnc(-c3ccccn3)n2n1)Nc1nccs1,IC50,Nonstructural protein 1,43.5 µM (active)
same,AC50,[7],76.4 µM (active)
CC1=NN(C(=O)c2ccc(Br)cc2)C(O)(C(F)(F)OC(F)(F)F)C1 (stereo not drawn),IC50,[1],4.84 µM (active)
same,EC50,[2],46 µM (active)
same,IC50,[3],> 20 µM (inactive)
COc1ccc(C(=O)Nc2ccc3ccccc3c2)cc1OC,IC50,[13],> 99 µM (inactive)
same,IC50,Caspase-3,14.9 µM (active)
same,IC50,[14],> 99 µM (inactive)
O=C(Nc1ccc2snnc2c1)N1CCOCC1,AC50,[12],8.02 µM (active)
Cc1cc(Br)cc(Br)c1OCC(=O)NNC(=O)Nc1ccccc1,IC50,[15],119 µM (inactive)
same,IC50,[16],83.3 µM (inactive)
